This assay deals with human kisspeptin receptor (Homo sapiens (Human), UniProt Q969F8). Briefly: Human KISS1R binding assay (membrane competition binding). The settings on record: 90 min at room temperature; competition with 0.2 nM [125I]-metastin (45-54); Flp-In T-Rex 293 kisspeptin membranes; metal complexes nonradioactive Ga, In, Lu; read-out: hKiSSR Binding Ki (90 min). The method in brief: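 Radioligand competition: 0.2 nM [125I]-metastin (45-54) displaced by test ligand (usually 0–10,000 nM) over 90 min at room temperature, pH 7.4 buffer with 0.1% BSA. Receptor source is crude membrane (5–10 μg) from tetracycline-induced Flp-In T-Rex 293 cells. Bound label filtered and counted; Ki from non-linear regression.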

Square brackets hold non-standard residues; d marks the D form. Peptide text beside a SMILES is read from it. * marks the point of attachment. DOTA = O=C(O)CN1CCN(CC(=O)O)CCN(CC(=O)*)CCN(CC(=O)O)CC1; Butanoyl(4-(4-I-phenyl)) = O=C(CCCc1ccc(I)cc1)*; Bpa = N[C@@H](Cc1ccc(C(=O)c2ccccc2)cc1)C(=O)O; Butanoyl(4-(4-MePh)) = Cc1ccc(CCCC(=O)*)cc1; Api(1-amidino) = N=C(N)N1CCC(N)(C(=O)O)CC1; Hydrocinnamoyl(4-Me) = Cc1ccc(CCC(=O)*)cc1; Hydrocinnamoyl(4-I) = O=C(CCc1ccc(I)cc1)*; Phe(4-CN) = N#Cc1ccc(C[C@H](N)C(=O)O)cc1; d2Nal = N[C@H](Cc1ccc2ccccc2c1)C(=O)O; Palmitoyl = CCCCCCCCCCCCCCCC(=O)*; Cha = N[C@@H](CC1CCCCC1)C(=O)O; Lauroyl = CCCCCCCCCCCC(=O)*; Octanoyl = CCCCCCCC(=O)*; Api = NC1(C(=O)O)CCNCC1; PEG2 = NCCOCCOCCC(=O)O; Ahx = NCCCCCC(=O)O; azaGly = NNC(=O)O; Sar = CNCC(=O)O Some results are limits rather than exact numbers.

Chain of human kisspeptin receptor (Q969F8 whole entry): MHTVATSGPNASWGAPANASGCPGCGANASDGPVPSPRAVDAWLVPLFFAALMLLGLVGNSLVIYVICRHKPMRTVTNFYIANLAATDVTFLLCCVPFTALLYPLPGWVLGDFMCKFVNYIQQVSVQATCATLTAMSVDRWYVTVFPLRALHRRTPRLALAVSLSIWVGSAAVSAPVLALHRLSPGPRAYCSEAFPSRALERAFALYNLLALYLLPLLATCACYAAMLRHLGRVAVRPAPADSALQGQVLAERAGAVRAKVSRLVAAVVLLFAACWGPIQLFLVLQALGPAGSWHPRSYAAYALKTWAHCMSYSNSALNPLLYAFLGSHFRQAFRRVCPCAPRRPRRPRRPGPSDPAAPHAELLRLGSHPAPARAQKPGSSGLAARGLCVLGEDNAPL

Usually Ki stands for a measure of affinity in units of concentration, obtained from inhibition or displacement. With `CC(C)C[C@H](NC(=O)NNC(=O)[C@H](Cc1ccccc1)NC(=O)[C@@H](NC(=O)[C@H](CC(N)=O)NC(=O)[C@H](CCCCNC(=O)CN1CCN(CC(=O)O)CCN(CC(=O)O)CCN(CC(=O)O)CC1)NC(=O)[C@@H](Cc1ccc(O)cc1)NC(=O)CCOCCOCCNC(=O)CCc1ccc(I)cc1)[C@@H](C)O)C(=O)NC1(C(=O)N[C@@H](Cc2ccc(O)cc2)C(N)=O)CCN(C(=N)N)CC1` [Compound 324] ({Hydrocinnamoyl(4-I)-PEG2}-[dY]K(DOTA)NTF[azaGly]L[Api(1-amidino)]Y-NH2), the Ki is less than 0.01 µM.

In the case of `CC(C)C[C@H](NC(=O)NNC(=O)[C@H](Cc1ccccc1)NC(=O)[C@@H](NC(=O)[C@H](CC(N)=O)NC(=O)[C@H](CCCCNC(=O)CN1CCN(CC(=O)O)CCN(CC(=O)O)CCN(CC(=O)O)CC1)NC(=O)[C@@H](Cc1ccc(O)cc1)NC(=O)CCOCCOCCNC(=O)CCc1ccc(I)cc1)[C@@H](C)O)C(=O)NC1(C(=O)N[C@@H](Cc2ccc(C#N)cc2)C(N)=O)CCN(C(=N)N)CC1` [Compound 325] ({Hydrocinnamoyl(4-I)-PEG2}-[dY]K(DOTA)NTF[azaGly]L[Api(1-amidino)][Phe(4-CN)]-NH2), the inhibition constant (Ki) was less than 0.01 µM.

For `Cc1ccc(CCC(=O)NCCOCCOCCC(=O)N[C@H](Cc2ccc(O)cc2)C(=O)N[C@@H](CCCCNC(=O)CN2CCN(CC(=O)O)CCN(CC(=O)O)CCN(CC(=O)O)CC2)C(=O)N[C@@H](CC(N)=O)C(=O)N[C@H](C(=O)N[C@@H](CC2CCCCC2)C(=O)NNC(=O)N[C@@H](CC(C)C)C(=O)NC2(C(=O)N[C@@H](Cc3c[nH]c4ccccc34)C(N)=O)CCN(C(=N)N)CC2)[C@@H](C)O)cc1` [Compound 326] ({Hydrocinnamoyl(4-Me)-PEG2}-[dY]K(DOTA)NT[Cha][azaGly]L[Api(1-amidino)]W-NH2), the Ki was less than 0.01 µM.

Take `CC(C)C[C@H](NC(=O)NNC(=O)[C@H](CC1CCCCC1)NC(=O)[C@@H](NC(=O)[C@H](CC(N)=O)NC(=O)[C@H](CCCCNC(=O)CN1CCN(CC(=O)O)CCN(CC(=O)O)CCN(CC(=O)O)CC1)NC(=O)[C@@H](Cc1ccc(O)cc1)NC(=O)CCOCCOCCNC(=O)CCc1ccc(I)cc1)[C@@H](C)O)C(=O)NC1(C(=O)N[C@@H](Cc2c[nH]c3ccccc23)C(N)=O)CCN(C(=N)N)CC1` [Compound 327] ({Hydrocinnamoyl(4-I)-PEG2}-[dY]K(DOTA)NT[Cha][azaGly]L[Api(1-amidino)]W-NH2): the Ki is less than 0.01 µM.

Turning to `CCCCCCCCCCCCCCCC(=O)N[C@H](Cc1ccc(O)cc1)C(=O)N[C@@H](CCCCNC(=O)CN1CCN(CC(=O)O)CCN(CC(=O)O)CCN(CC(=O)O)CC1)C(=O)N[C@@H](CC(N)=O)C(=O)N[C@H](C(=O)N[C@@H](Cc1ccccc1)C(=O)NNC(=O)N[C@@H](CC(C)C)C(=O)NC1(C(=O)N[C@@H](Cc2c[nH]c3ccccc23)C(N)=O)CCN(C(=N)N)CC1)[C@@H](C)O` [Compound 328] (Palmitoyl-[dY]K(DOTA)NTF[azaGly]L[Api(1-amidino)]W-NH2), the Ki is less than 0.01 µM.

Turning to `CCCCCCCCCCCC(=O)N[C@H](Cc1ccc(O)cc1)C(=O)N[C@@H](CCCCNC(=O)CN1CCN(CC(=O)O)CCN(CC(=O)O)CCN(CC(=O)O)CC1)C(=O)N[C@@H](CC(N)=O)C(=O)N[C@H](C(=O)N[C@@H](Cc1ccccc1)C(=O)NNC(=O)N[C@@H](CC(C)C)C(=O)NC1(C(=O)N[C@@H](Cc2c[nH]c3ccccc23)C(N)=O)CCN(C(=N)N)CC1)[C@@H](C)O` [Compound 329] (Lauroyl-[dY]K(DOTA)NTF[azaGly]L[Api(1-amidino)]W-NH2), the Ki was less than 0.01 µM.

For the compound `CCCCCCCCCCCCCCCC(=O)N[C@H](Cc1ccc(O)cc1)C(=O)N[C@@H](CCCCNC(=O)CN1CCN(CC(=O)O)CCN(CC(=O)O)CCN(CC(=O)O)CC1)C(=O)N[C@@H](CC(N)=O)C(=O)N[C@H](C(=O)N[C@@H](Cc1ccccc1)C(=O)NNC(=O)N[C@@H](CC(C)C)C(=O)NC1(C(=O)N[C@@H](Cc2ccc(O)cc2)C(N)=O)CCN(C(=N)N)CC1)[C@@H](C)O` [Compound 330] (Palmitoyl-[dY]K(DOTA)NTF[azaGly]L[Api(1-amidino)]Y-NH2), the Ki was less than 0.01 µM.

Regarding `CCCCCCCCCCCC(=O)N[C@H](Cc1ccc(O)cc1)C(=O)N[C@@H](CCCCNC(=O)CN1CCN(CC(=O)O)CCN(CC(=O)O)CCN(CC(=O)O)CC1)C(=O)N[C@@H](CC(N)=O)C(=O)N[C@H](C(=O)N[C@@H](Cc1ccccc1)C(=O)NNC(=O)N[C@@H](CC(C)C)C(=O)NC1(C(=O)N[C@@H](Cc2ccc(O)cc2)C(N)=O)CCN(C(=N)N)CC1)[C@@H](C)O` [Compound 331] (Lauroyl-[dY]K(DOTA)NTF[azaGly]L[Api(1-amidino)]Y-NH2), the Ki is less than 0.01 µM.

For `CCCCCCCC(=O)N[C@H](Cc1ccc(O)cc1)C(=O)N[C@@H](CCCCNC(=O)CN1CCN(CC(=O)O)CCN(CC(=O)O)CCN(CC(=O)O)CC1)C(=O)N[C@@H](CC(N)=O)C(=O)N[C@H](C(=O)N[C@@H](Cc1ccccc1)C(=O)NNC(=O)N[C@@H](CC(C)C)C(=O)NC1(C(=O)N[C@@H](Cc2ccc(O)cc2)C(N)=O)CCN(C(=N)N)CC1)[C@@H](C)O` [Compound 332] (Octanoyl-[dY]K(DOTA)NTF[azaGly]L[Api(1-amidino)]Y-NH2), the inhibition constant Ki was less than 0.01 µM.

Consider `Cc1ccc(CCC(=O)NCCOCCOCCC(=O)N[C@H](Cc2ccc(O)cc2)C(=O)N[C@@H](CCCCNC(=O)CN2CCN(CC(=O)O)CCN(CC(=O)O)CCN(CC(=O)O)CC2)C(=O)N[C@@H](CC(N)=O)C(=O)N[C@H](C(=O)N[C@@H](Cc2ccccc2)C(=O)NNC(=O)N[C@@H](CC(C)C)C(=O)NC2(C(=O)N[C@@H](Cc3ccc(C#N)cc3)C(N)=O)CCN(C(=N)N)CC2)[C@@H](C)O)cc1` [Compound 333] ({Hydrocinnamoyl(4-Me)-PEG2}-[dY]K(DOTA)NTF[azaGly]L[Api(1-amidino)][Phe(4-CN)]-NH2), for which the Ki is less than 0.01 µM.

For the compound `CC(C)C[C@H](NC(=O)NNC(=O)[C@H](Cc1ccccc1)NC(=O)[C@@H](NC(=O)[C@H](CC(N)=O)NC(=O)[C@@H](CCCCNC(=O)CN1CCN(CC(=O)O)CCN(CC(=O)O)CCN(CC(=O)O)CC1)NC(=O)[C@@H](Cc1ccc(O)cc1)NC(=O)CCOCCOCCNC(=O)CCc1ccc(I)cc1)[C@@H](C)O)C(=O)NC1(C(=O)N[C@@H](Cc2c[nH]c3ccccc23)C(N)=O)CCN(C(=N)N)CC1` [Compound 334] ({Hydrocinnamoyl(4-I)-PEG2}-[dY][dK](DOTA)NTF[azaGly]L[Api(1-amidino)]W-NH2), the Ki was less than 0.01 µM.

Consider `Cc1ccc(CCCC(=O)NCCCC[C@@H](NC(=O)CCCCCNC(=O)CN2CCN(CC(=O)O)CCN(CC(=O)O)CCN(CC(=O)O)CC2)C(=O)N[C@H](Cc2ccc(O)cc2)C(=O)N[C@H](Cc2ccc3ccccc3c2)C(=O)N[C@@H](CC(N)=O)C(=O)N[C@H](C(=O)N[C@@H](Cc2ccccc2)C(=O)NNC(=O)N[C@@H](CC(C)C)C(=O)NC2(C(=O)N[C@@H](Cc3c[nH]c4ccccc34)C(N)=O)CCN(C(=N)N)CC2)[C@@H](C)O)cc1` [Compound 335] ({DOTA-Ahx}-[dK](Butanoyl(4-(4-MePh)))[dY][d2Nal]NTF[azaGly]L[Api(1-amidino)]W-NH2), for which the inhibition constant Ki was less than 0.01 µM.

As to `CC(C)C[C@H](NC(=O)NNC(=O)[C@H](Cc1ccccc1)NC(=O)[C@@H](NC(=O)[C@H](CC(N)=O)NC(=O)[C@@H](Cc1ccc2ccccc2c1)NC(=O)[C@@H](Cc1ccc(O)cc1)NC(=O)[C@@H](CCCCNC(=O)CCCc1ccc(I)cc1)NC(=O)CCCCCNC(=O)CN1CCN(CC(=O)O)CCN(CC(=O)O)CCN(CC(=O)O)CC1)[C@@H](C)O)C(=O)NC1(C(=O)N[C@@H](Cc2c[nH]c3ccccc23)C(N)=O)CCN(C(=N)N)CC1` [Compound 336] ({DOTA-Ahx}-[dK](Butanoyl(4-(4-I-phenyl)))[dY][d2Nal]NTF[azaGly]L[Api(1-amidino)]W-NH2), the Ki was less than 0.01 µM.

Regarding `CC(C)C[C@H](NC(=O)NNC(=O)[C@H](Cc1ccccc1)NC(=O)[C@@H](NC(=O)[C@H](CC(N)=O)NC(=O)[C@@H](Cc1ccc2ccccc2c1)NC(=O)[C@@H](Cc1ccc(O)cc1)NC(=O)CCCCCNC(=O)[C@@H](CCCCNC(=O)CCCc1ccc(I)cc1)NC(=O)CCCCCNC(=O)CN1CCN(CC(=O)O)CCN(CC(=O)O)CCN(CC(=O)O)CC1)[C@@H](C)O)C(=O)NC1(C(=O)N[C@@H](Cc2c[nH]c3ccccc23)C(N)=O)CCN(C(=N)N)CC1` [Compound 337] ({DOTA-Ahx}-[dK](Butanoyl(4-(4-I-phenyl)))[Ahx][dY][d2Nal]NTF[azaGly]L[Api(1-amidino)]W-NH2), the Ki was less than 0.01 µM.

As for `Cc1ccc(CCC(=O)NCCOCCOCCC(=O)N[C@H](Cc2ccc(O)cc2)C(=O)N[C@H](CCCCNC(=O)CN2CCN(CC(=O)O)CCN(CC(=O)O)CCN(CC(=O)O)CC2)C(=O)N[C@@H](CC(N)=O)C(=O)N[C@H](C(=O)N[C@@H](Cc2ccccc2)C(=O)NNC(=O)N[C@@H](CC(C)C)C(=O)NC2(C(=O)N[C@@H](Cc3c[nH]c4ccccc34)C(N)=O)CCN(C(=N)N)CC2)[C@@H](C)O)cc1` [Compound 338] ({Hydrocinnamoyl(4-Me)-PEG2}-[dY][dK](DOTA)NTF[azaGly]L[Api(1-amidino)]W-NH2), the inhibitory constant (Ki) was less than 0.01 µM.

For the compound `CC(C)C[C@H](NC(=O)NNC(=O)[C@H](Cc1ccccc1)NC(=O)[C@@H](NC(=O)[C@H](CC(N)=O)NC(=O)[C@@H](Cc1ccc2ccccc2c1)NC(=O)[C@@H](Cc1ccc(O)cc1)NC(=O)CCCCCNC(=O)CN1CCN(CC(=O)O)CCN(CC(=O)O)CCN(CC(=O)O)CC1)[C@@H](C)O)C(=O)NC1(C(=O)N[C@H](Cc2c[nH]c3ccccc23)C(N)=O)CCNCC1` [Compound 339] ({DOTA-Ahx}-[dY][d2Nal]NTF[azaGly]L[Api][dW]-NH2), the Ki was less than 0.01 µM.

`CNCC(=O)N1CCC(NC(=O)[C@H](CC(C)C)NC(=O)NNC(=O)[C@H](Cc2ccccc2)NC(=O)[C@@H](NC(=O)[C@H](CC(N)=O)NC(=O)[C@H](Cc2ccc(C(=O)c3ccccc3)cc2)NC(=O)[C@@H](Cc2ccc(O)cc2)NC(=O)CCCCCNC(=O)CN2CCN(CC(=O)O)CCN(CC(=O)O)CCN(CC(=O)O)CC2)[C@@H](C)O)(C(=O)N[C@H](Cc2c[nH]c3ccccc23)C(N)=O)CC1` [Compound 345] ({DOTA-Ahx}-[dY][Bpa]NTF[azaGly]L[Api](Sar)[dW]-NH2): the Ki was less than 0.01 µM.

The values above are taken from patent publication US20250312499A1, “KISSPEPTIN RECEPTOR (KISS1R) TARGETED THERAPEUTICS AND USES THEREOF” (priority 2024, published 2025).
